Bounds are passed on as bounds.

For one series, the target named is T1, human mGluR2 receptor (Homo sapiens, UniProt Q14416).
T1 construct: expressed in transfected cells; host or cells: CHO cells (membranes)
T1 sequence (Q14416 19-872): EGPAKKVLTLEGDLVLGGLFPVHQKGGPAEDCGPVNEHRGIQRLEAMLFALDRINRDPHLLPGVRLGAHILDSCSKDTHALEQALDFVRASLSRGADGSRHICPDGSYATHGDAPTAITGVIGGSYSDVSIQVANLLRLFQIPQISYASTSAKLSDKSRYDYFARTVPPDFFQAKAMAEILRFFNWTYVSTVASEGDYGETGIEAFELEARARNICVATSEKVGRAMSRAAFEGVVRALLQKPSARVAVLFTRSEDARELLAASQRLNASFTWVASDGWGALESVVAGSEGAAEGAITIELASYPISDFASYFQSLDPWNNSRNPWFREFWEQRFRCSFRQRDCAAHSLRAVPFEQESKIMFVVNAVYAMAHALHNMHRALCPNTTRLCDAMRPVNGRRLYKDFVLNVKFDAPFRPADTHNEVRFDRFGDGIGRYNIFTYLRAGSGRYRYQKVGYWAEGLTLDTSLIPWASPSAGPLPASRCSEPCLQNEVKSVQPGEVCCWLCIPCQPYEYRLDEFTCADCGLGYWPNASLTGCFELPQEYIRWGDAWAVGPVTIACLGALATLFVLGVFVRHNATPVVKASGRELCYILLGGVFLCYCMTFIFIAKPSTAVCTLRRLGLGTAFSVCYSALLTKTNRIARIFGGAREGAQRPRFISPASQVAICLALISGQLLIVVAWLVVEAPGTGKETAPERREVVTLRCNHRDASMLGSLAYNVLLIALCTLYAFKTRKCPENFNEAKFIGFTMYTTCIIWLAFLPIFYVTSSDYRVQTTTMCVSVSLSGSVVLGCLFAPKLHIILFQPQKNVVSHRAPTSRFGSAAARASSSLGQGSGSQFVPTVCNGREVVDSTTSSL
Kind of series: [35S]GTPγS binding assay (PAM). The settings on record: in presence of glutamate at predetermined EC20; membranes from CHO cells transfected with human mGluR2. The format is biochemical. As to the method: [^35S]GTPγS binding assay
The [^35S]GTPγS binding assay is a functional membrane-based assay used to study G-protein coupled receptor (GPCR) function whereby incorporation of a non-hydrolysable form of GTP, [^35S]GTPγS (guanosine 5′-triphosphate, labelled with […] ^35S), is measured.
CHO-cells were cultured to pre-confluence and stimulated with 5 mM butyrate for 24 h, prior to washing in PBS, and then collected by scraping in homogenisation buffer (50 mM Tris-HCl buffer, pH 7.4, 4° C.). Cell lysates were homogenized briefly using an ultra-turrax homogenizer. The homogenate was centrifuged at 16,000 RPM (Sorvall RC-5C plus rotor SS-34) for 10 minutes and the supernatant discarded. The pellet was resuspended in 5 mM Tris-HCl, pH 7.4 and centrifuged again (18,000 RPM, 20 min, 4° C.). The final pellet was resuspended in 50 mM Tris-HCl, pH 7.4 and stored at −80° C. in appropriate aliquots before use. Protein concentration was determined by the Bradford method (Bio-Rad, USA) with bovine serum albumin as standard.
Measurement of mGluR2 positive allosteric modulatory activity of test compounds was performed as follows. Test compounds and glutamate were diluted in assay buffer containing 10 mM HEPES acid, 10 mM HEPES salt, pH 7.4, 100 mM NaCl, 3 mM MgCl2 and 10 μM GDP. Human mGlu2 receptor-containing membranes were thawed on ice and diluted in assay buffer supplemented with 14 μg/ml saponin. Membranes were pre-incubated with compound alone or together with a predefined (˜EC20) concentration of glutamate (PAM assay) for 30 min at 30° C. After addition of [^35S]GTPγS (f.c. 0.1 nM) microplates were shaken briefly and further incubated to allow [^35S]GTPγS incorporation on activation (30 minutes, 30° C.). Final assay mixtures contained 7 μg of membrane protein in 10 mM HEPES acid, 10 mM HEPES salt, pH 7.4, 100 mM NaCl, 3 mM MgCl2, 10 μM GDP and 10 μg/ml saponin. Total reaction volume was […] Reactions were terminated by rapid filtration through Unifilter-96 GF/B filter plates (Packard, Meriden, Conn.) using a 96-well Packard filtermate harvester. Filters were washed 6 times with ice-cold 10 mM NaH2PO4/10 mM Na2HPO4, pH 7.4. Filters were then air-dried, and 40 μl of liquid scintillation cocktail (Microscint-O) was added to each well. Membrane-bound radioactivity was counted in a Microplate Scintillation and Luminescence Counter from Packard.
obtained in the presence of EC20 of mGluR2 agonist glutamate to determine positive allosteric modulation (PAM)—were generated using the Lexis software interface (developed at J&J). Data were calculated as % of the control glutamate response, defined as the maximal response that is generated upon addition of glutamate alone. Sigmoid concentration-response curves plotting these percentages versus the log concentration of the test compound were analyzed using non-linear regression analysis. The concentration producing half-maximal effect is then calculated as EC50.
All compounds were tested in presence of mGluR2 agonist, glutamate at a predetermined EC20 concentration, to determine positive allosteric modulation (GTPγS-PAM). pEC50 values were calculated from a concentration-response experiment of at least 10 concentrations.
In general terms: GTPγS resists hydrolysis and so accumulates on activated G proteins.
As to `Clc1c(-c2ccc(N3CCOCC3)nc2)ccn2c(CC3CC3)nnc12` [Co. No. 67], the “GTPγS -hR2 PAM pEC50” value was 5.61.

With `Cc1cc(Oc2ccc(-c3ccn4c(CC5CC5)nnc4c3C(F)(F)F)cc2F)cc(C)n1` [Co. No. 38], the “GTPγS -hR2 PAM pEC50” value amounted to 7.16.

In the case of `CCOCc1nnc2c(C(F)(F)F)c(-c3ccc(Oc4ccc(C)nc4C)c(F)c3)ccn12` [Co. No. 44], the “GTPγS -hR2 PAM pEC50” value amounted to 7.51.

With `Cc1ccc(Oc2ccc(-c3ccn4c(CC5CC5)nnc4c3C(F)(F)F)cc2Cl)c(C)n1` [Co. No. 53], the “GTPγS -hR2 PAM pEC50” value is reported as 8.79.

Regarding `Clc1c(-c2ccc(N3CCCCC3)nc2)ccn2c(CC3CC3)nnc12` [Co. No. 69], the “GTPγS -hR2 PAM pEC50” value is given as 6.53.

Turning to `CC1(O)CCN(Cc2ccc(-c3ccn4c(CC5CC5)nnc4c3C(F)(F)F)cc2Cl)CC1` [Co. No. 72], the “GTPγS -hR2 PAM pEC50” value is given as 6.49.

For `Cc1ccc(Oc2ccc(-c3ccn4c(CC5CC5)nnc4c3C)cc2Cl)c(C)n1` [Co. No. 61], the “GTPγS -hR2 PAM pEC50” value came to 7.70.

With `Clc1c(-c2ccccc2)ccn2c(CN3CCOc4ccccc4C3)nnc12` [Co. No. 28], the “GTPγS -hR2 PAM pEC50” value stood at 6.05.

Consider `Cc1ccc(CNc2ccc(-c3ccn4c(CC5CC5)nnc4c3C(F)(F)F)cc2F)cn1` [Co. No. 78], for which the “GTPγS -hR2 PAM pEC50” value is given as 7.98.

For the compound `FC(F)(F)c1c(-c2ccc(CN3CCOCC3)c(Cl)c2)ccn2c(CC3CC3)nnc12` [Co. No. 71], the “GTPγS -hR2 PAM pEC50” value was 7.02.

On to `COc1ccc(CNc2ccc(-c3ccn4c(CC5CC5)nnc4c3Cl)cc2)cn1` [Co. No. 59], for which the “GTPγS -hR2 PAM pEC50” value was 7.15.

On to `CC(C)Nc1ccc(-c2ccn3c(CC4CC4)nnc3c2Cl)cc1Cl` [Co. No. 51], for which the “GTPγS -hR2 PAM pEC50” value was 7.13.

With `CC(C)Nc1ccc(-c2ccn3c(CC4CC4)nnc3c2C(F)(F)F)cc1Cl` [Co. No. 52], the “GTPγS -hR2 PAM pEC50” value came out at 7.77.

For `Fc1cc(-c2ccn3c(CC4CC4)nnc3c2Cl)ccc1NC1CC1` [Co. No. 25], the “GTPγS -hR2 PAM pEC50” value turned out to be 7.20.

Turning to `Cc1ccc(Oc2ccc(-c3ccn4c(CC(F)(F)F)nnc4c3Cl)cc2Cl)c(C)n1` [Co. No. 55], the “GTPγS -hR2 PAM pEC50” value amounted to 8.00.

Take `Clc1c(-c2ccc(Oc3ccccc3)cc2)ccn2c(C3CCC3)nnc12` [Co. No. 17]: the “GTPγS -hR2 PAM pEC50” value came out at 6.88.

For `O[C@H]1CC[C@@H](Oc2ccc(-c3ccn4c(CC(F)(F)F)nnc4c3Cl)cc2Cl)CC1` [Co. No. 26], the “GTPγS -hR2 PAM pEC50” value was 7.01.

On to `CC(C)Nc1ccc(-c2ccn3c(CC4CC4)nnc3c2Cl)cc1F` [Co. No. 50], for which the “GTPγS -hR2 PAM pEC50” value is given as 6.65.

`FC(F)(F)C1CCN(Cc2ccc(-c3ccn4c(CC5CC5)nnc4c3Cl)cc2)CC1` [Co. No. 19]: the “GTPγS -hR2 PAM pEC50” value is reported as 6.13.

With `CCOCc1nnc2c(Cl)c(-c3ccc(Oc4ccc(C)nc4C)c(F)c3)ccn12` [Co. No. 33], the “GTPγS -hR2 PAM pEC50” value turned out to be 7.13.

As to `O[C@H]1CC[C@H](Oc2ccc(-c3ccn4c(CC(F)(F)F)nnc4c3Cl)cc2Cl)CC1` [Co. No. 27], the “GTPγS -hR2 PAM pEC50” value worked out at 6.80.

Consider `Cc1cc(Oc2ccc(-c3ccn4c(CCC5CC5)nnc4c3Cl)cc2F)ccn1` [Co. No. 41], for which the “GTPγS -hR2 PAM pEC50” value was determined as 6.54.

For the compound `FC(F)(F)c1c(-c2ccc(N3CCCCC3)nc2)ccn2c(CC3CC3)nnc12` [Co. No. 70], the “GTPγS -hR2 PAM pEC50” value stood at 6.67.

In the case of `FC(F)(F)c1c(-c2ccc(CNC3CCOCC3)c(Cl)c2)ccn2c(CC3CC3)nnc12` [Co. No. 74], the “GTPγS -hR2 PAM pEC50” value was determined as 6.21.

`FC(F)(F)c1c(-c2ccc(NC3CC3)c(Cl)c2)ccn2c(CC3CC3)nnc12` [Co. No. 31]: the “GTPγS -hR2 PAM pEC50” value is given as 8.15.

For the compound `FC(F)(F)Cc1nnc2c(Cl)c(-c3ccc(NC4CCOCC4)c(Cl)c3)ccn12` [Co. No. 30], the “GTPγS -hR2 PAM pEC50” value is given as 6.66.

With `Clc1cc(-c2ccn3c(CC4CC4)nnc3c2Cl)ccc1OC1CCOCC1` [Co. No. 23], the “GTPγS -hR2 PAM pEC50” value came out at 6.53.

Turning to `O[C@]1(C2CC2)CC[C@H](Nc2ccc(-c3ccn4c(CC5CC5)nnc4c3C(F)(F)F)cc2Cl)CC1` [Co. No. 47], the “GTPγS -hR2 PAM pEC50” value worked out at 8.79.

As for `O[C@H]1CC[C@H](Nc2ccc(-c3ccn4c(CC(F)(F)F)nnc4c3Cl)cc2Cl)CC1` [Co. No. 29], the “GTPγS -hR2 PAM pEC50” value is on record as 7.40.

Take `O[C@H]1CC[C@H](Nc2ccc(-c3ccn4c(CC5CC5)nnc4c3Cl)cc2Cl)CC1` [Co. No. 21]: the “GTPγS -hR2 PAM pEC50” value is given as 7.11.

In the case of `CCOCc1nnc2c(C(F)(F)F)c(-c3ccc(Oc4cc(C)nc(C)c4)c(F)c3)ccn12` [Co. No. 37], the “GTPγS -hR2 PAM pEC50” value was found to be 6.63.

As for `Cc1cc(Oc2ccc(-c3ccn4c(CC(F)(F)F)nnc4c3Cl)cc2Cl)ccn1` [Co. No. 40], the “GTPγS -hR2 PAM pEC50” value is listed as 6.78.

Take `CCOCc1nnc2c(C)c(-c3ccc(Oc4ccc(C)nc4C)c(Cl)c3)ccn12` [Co. No. 65]: the “GTPγS -hR2 PAM pEC50” value worked out at 7.26.

For `CC(C)Nc1ccc(-c2ccn3c(CC4CC4)nnc3c2Cl)cn1` [Co. No. 66], the “GTPγS -hR2 PAM pEC50” value amounted to 6.51.

Consider `FC(F)(F)c1c(-c2ccc(N3CCOCC3)nc2)ccn2c(CC3CC3)nnc12` [Co. No. 68], for which the “GTPγS -hR2 PAM pEC50” value worked out at 5.90.

Staying with this series, now noted: in presence of glutamate at predetermined EC20; membranes from CHO cells transfected with human mGluR2; read-out: GTPγS -hR2 PAM pEC50 (converted).
Consider `Clc1cc(-c2ccn3c(CC4CC4)nnc3c2Cl)ccc1NC1CC1` [Co. No. 6], for which the EC50 is 36.3 nM.

Consider `O[C@H]1CC[C@H](Nc2ccc(-c3ccn4c(CC5CC5)nnc4c3Cl)cc2Cl)CC1` [Co. No. 12, 8-Cloro-7-[3-chloro-4-(4-hydroxy-cyclohexylamino)-phenyl]-3-cyclopropylmethyl-[1,2,4]triazolo[4,3-a]pyridine], for which the EC50 is 41.7 nM.

Regarding `OC1CCC(Nc2ccc(-c3ccn4c(CC5CC5)nnc4c3Cl)cc2Cl)CC1` (single isomer, unassigned) [Co. No. 13-a, 7-[3-Chloro-4-(4-hydroxy-cyclohexylamino)-phenyl]-8-chloro-3-cyclopropylmethyl-[1,2,4]triazolo[4,3-a]pyridine], the EC50 is 22.9 nM.

As to `FC(F)(F)c1c(-c2ccc(NC3CCOCC3)c(Cl)c2)ccn2c(CC3CC3)nnc12` [Co. No. 10, 8-Trifluoromethyl-7-[3-chloro-4-(tetrahydro-pyran-4-ylamino)-phenyl]-3-cyclopropylmethyl-[1,2,4]triazolo[4,3-a]pyridine], the EC50 is 17 nM.

Regarding `CCOCc1nnc2c(C(F)(F)F)c(-c3ccc(Oc4ccnc(C)c4)c(F)c3)ccn12` [Co. No. 36, 3-Ethoxymethyl-7-[3-fluoro-4-(2-methyl-pyridin-4-yloxy)-phenyl]-8-trifluoromethyl-[1,2,4]triazolo[4,3-a]pyridine], the EC50 was 219 nM.

Turning to `FC(F)(F)c1c(-c2ccc(OC3CCOCC3)c(Cl)c2)ccn2c(CC3CC3)nnc12` [Co. No. 9, 8-Trifluoromethyl-7-[3-chloro-4-(tetrahydro-pyran-4-yloxy)-phenyl]-3-cyclopropylmethyl-[1,2,4]triazolo[4,3-a]pyridine], the EC50 is 40.7 nM.

In the case of `CC(C)Nc1ccc(-c2ccn3c(CC4CC4)nnc3c2C(F)(F)F)cc1F` [Co. No. 49, 3-Cyclopropylmethyl-7-[3-fluoro-4-(isopropylamino)-phenyl]-8-trifluoromethyl-[1,2,4]triazolo[4,3-a]pyridine], the EC50 was 60.3 nM.

Regarding `Clc1c(-c2ccccc2)ccn2c(CN3CCC(c4ccccc4)CC3)nnc12` [Co. No. 5], the EC50 is 191 nM.

Tested on in another series: not given
Assay: not given
Details: not given
`Clc1cc(-c2ccn3c(CC4CC4)nnc3c2Cl)ccc1NC1CC1` [Co. No. 6] displayed a melting point of more than 300 °C.

With `O[C@H]1CC[C@H](Nc2ccc(-c3ccn4c(CC5CC5)nnc4c3Cl)cc2Cl)CC1` [Co. No. 12, 8-Cloro-7-[3-chloro-4-(4-hydroxy-cyclohexylamino)-phenyl]-3-cyclopropylmethyl-[1,2,4]triazolo[4,3-a]pyridine], the melting point amounted to 273.7 °C.

In the case of `FC(F)(F)c1c(-c2ccc(NC3CCOCC3)c(Cl)c2)ccn2c(CC3CC3)nnc12` [Co. No. 10, 8-Trifluoromethyl-7-[3-chloro-4-(tetrahydro-pyran-4-ylamino)-phenyl]-3-cyclopropylmethyl-[1,2,4]triazolo[4,3-a]pyridine], the melting point was determined as 198.4 °C.

For the compound `CCOCc1nnc2c(C(F)(F)F)c(-c3ccc(Oc4ccnc(C)c4)c(F)c3)ccn12` [Co. No. 36, 3-Ethoxymethyl-7-[3-fluoro-4-(2-methyl-pyridin-4-yloxy)-phenyl]-8-trifluoromethyl-[1,2,4]triazolo[4,3-a]pyridine], the melting point was 171.2 °C.

As to `FC(F)(F)c1c(-c2ccc(OC3CCOCC3)c(Cl)c2)ccn2c(CC3CC3)nnc12` [Co. No. 9, 8-Trifluoromethyl-7-[3-chloro-4-(tetrahydro-pyran-4-yloxy)-phenyl]-3-cyclopropylmethyl-[1,2,4]triazolo[4,3-a]pyridine], the melting point is 176.9 °C.

As for `CC(C)Nc1ccc(-c2ccn3c(CC4CC4)nnc3c2C(F)(F)F)cc1F` [Co. No. 49, 3-Cyclopropylmethyl-7-[3-fluoro-4-(isopropylamino)-phenyl]-8-trifluoromethyl-[1,2,4]triazolo[4,3-a]pyridine], the melting point was 196.9 °C.

`Clc1c(-c2ccc(Oc3ccccc3)cc2)ccn2c(CC3CC3)nnc12` [Co. No. 8, 8-Chloro-3-cyclopropylmethyl-7-(4-phenoxy-phenyl)-1,2,4-triazolo[4,3-a]pyridine] had a melting point of 156.7 °C.

As a reminder, the melting point is the temperature, or range, at which the solid turns liquid.
